The record followed here is patent publication US10981911B2, “Imidazopyrrolopyridine as inhibitors of the JAK family of kinases” (Janssen Pharmaceutica NV, priority 2016, dated 2021).

Molecules are shown by their SMILES. Where two headings read alike, the source gives them in different places.

Series [1] in a line: In vivo p.o. dosing: plasma and colon tissue concentrations (Protocols 1 and 2). Set-up: species or system female C57BL/6 mice. Conditions: female, C57BL/6, mouse, po, mice, 25 mg/kg p.o. Here is the method: These protocols are described below under the heading In vivo Studies. Three non-fasted female C57BL/6 mice were orally administered test compound at a dose of 25 mg/kg p.o. as a solution in 20% hydroxypropyl-beta-cyclodextrin (HPβCD) at a dose volume of 5 mL/kg. Blood samples were collected at 0.5, 2, and 4 h post dose via retro-orbital bleed or venipuncture of the dorsal metatarsal vein. Blood samples were collected into tubes containing anticoagulant (Heparin-Na) and placed on wet ice. The plasma fraction was separated by centrifugation and frozen at −20° C. for up to 4 h and −80° C. after 4 h unless analyzed shortly after sample collection. Colon samples were collected at 4 h post dose. […] The colon was further washed by putting it in 5 mL of saline and shaken for 5 seconds. The colon sample was then patted dry, weighed, and homogenized as 1 part tissue (g) to 4 parts HPLC grade water (mL). Concentrations of the compound in plasma and colon homogenate were determined using a qualified liquid chromatography-triple quadrupole mass spectrometry (LC-MS/MS) method. […] Three non-fasted female C57BL/6 mice were orally administered test compound at a dose of 25 mg/kg p.o. as a solution in 20% HPβCD at a dose volume of 5 mL/kg. Blood samples were collected at 0.5, 2, and 4 h post dose via retro-orbital bleed or dorsal metatarsal vein. Blood samples were collected into tubes containing anticoagulant (Heparin-Na) and placed on wet ice. The plasma fraction was separated by centrifugation and frozen at −20° C. for up to 4 h and −80° C. after 4 h unless analyzed shortly after sample collection. Colon samples were collected at 4 h post dose. From 2 cm below the cecum, a 4 cm sample of the colon was dissected, cut open on the longitudinal axis, and the solid contents removed by flushing with 2 mL of saline. The colon was further washed by putting it in 5 mL of saline and shaken for 5 seconds. The colon sample was then patted dry, weighed, and homogenized as 1 part tissue (g) to 4 parts HPLC grade water (mL). Concentrations of the compound in plasma and colon homogenate were determined using a qualified liquid chromatography-triple quadrupole mass spectrometry (LC-MS/MS) method.

The test system of a further series is IFNα pSTAT4 (JAK1/TYK2). Put plainly: IFNα pSTAT4 (JAK1/TYK2) cellular assay (AlphaLISA, PBMCs). The series is classed as cell-based. Conditions: PBMC, IFNα at 4 ng/mL. The procedure: The AlphaLISA assay (based on Alpha Technology from PerkinElmer) was performed by first plating freshly thawed PBMCs (Biological Specialty Corporation) in 384-well plates at 100,000 cells per 6 μL per well in DMEM (Dulbecco's Modified Eagle Medium) containing 10% FBS (fetal bovine serum) and 1,000 I.U./mL penicillin and 1,000 μg/mL streptomycin. The cells were then treated with 2 μL/well of compounds diluted in DMSO at half-log titrated concentrations, with a highest test concentration of 10 μM and 0.5% final DMSO concentration, for thirty minutes at 37° C. Next, the cells were stimulated with 2 μL/well of IFNα (PBL Assay Science Cat. No. 11101-2) at 4 ng/mL for thirty minutes at 37° C. The cellular reactions were terminated by the addition of 2 μL/well of lysis buffer (PerkinElmer Cat. No. ALSU-PST4-A10K) followed by an incubation of five minutes at room temperature. 4 μL/well of acceptor mix (PerkinElmer Cat. No. ALSU-PST4-A10K) was added to the cells and incubated in the dark for one hour at room temperature. Then, 4 μL/well of donor mix (PerkinElmer Cat. No. ALSU-PST4-A10K) was added to the cells and incubated in the dark overnight at room temperature. Finally, the plates were read on a PerkinElmer EnVision for detection of the time-resolved fluorescence signal. The percentage of IFNα-dependent pSTAT4 inhibition was determined at the compound test concentrations; and for each compound, a dose curve was generated and the IC50 was calculated. Compound IC50 was calculated by nonlinear regression, sigmoidal dose response analysis of the half-log dilution titration curve of the compound concentration vs. Alpha signal. The term “Alpha” is defined in the immediately preceding cellular assay description.

A further series concerns IL-2 pSTAT5 (JAK1/JAK3). Briefly: IL-2 pSTAT5 (JAK1/JAK3) cellular assay (AlphaLISA, PBMCs). The series is classed as cell-based. Conditions: PBMC, IL-2 at 5 ng/mL. Here is the method: The AlphaLISA assay (based on Alpha Technology from PerkinElmer) was performed by first plating freshly thawed PBMCs (Biological Specialty Corporation) in 384-well plates at 30,000 cells per 4 μL per well in HBSS (Hanks' Balanced Salt Solution) containing 0.1% IgG (immunoglobulin G)-free, protease-free BSA (bovine serum albumin) (Jackson ImmunoResearch Cat. No. 001-000-161). The cells were then treated with 2 μL/well of compounds diluted in DMSO at half-log titrated concentrations, with a highest test concentration of 10 μM and 0.5% final DMSO concentration, for thirty minutes at 37° C. […] Compound IC50 was calculated by nonlinear regression, sigmoidal dose response analysis of the half-log dilution titration curve of the compound concentration vs. Alpha signal. The acronym “Alpha” stands for amplified luminescent proximity homogeneous assay; the Alpha signal is a luminescent/fluorescent signal.

[2] abbreviates: colon, read-out: Colon Concentration After p.o. Dosing, Mean.
[3] abbreviates: plasma, read-out: Plasma Concentration After p.o. Dosing, Mean.

Take `N#CCCNC(=O)Cc1nc2cnc3[nH]ccc3c2n1[C@H]1CC[C@H](CC#N)CC1` [Ex. 4, N-(2-Cyanoethyl)-2-(1-((1r,4r)-4-(cyanomethyl)cyclohexyl)-1,6-dihydroimidazo[4,5-d]pyrrolo[2,3-b]pyridin-2-yl)acetamide]: the concentration at 4 h in series [1] (setting [2]) is 4450 ng/g. In series [1] (setting [3]), the concentration at 0.5 h turned out to be 12.9 ng/mL, the concentration at 2 h came to 7.5 ng/mL and the concentration at 4 h came out at 3.3 ng/mL. Besides, inhibition in the series on IFNα pSTAT4 (JAK1/TYK2) was half-maximal at 64.7 nM (IC50). Besides, the IC50 with IL-2 pSTAT5 (JAK1/JAK3) came to 35.5 nM.

Consider `N#CC[C@H]1CC[C@H](n2c(CC(=O)NCC3(O)CC3)nc3cnc4[nH]ccc4c32)CC1` [Ex. 85, 2-(1-((1r,4r)-4-(Cyanomethyl)cyclohexyl)-1,6-dihydroimidazo[4,5-d]pyrrolo[2,3-b]pyridin-2-yl)-N-((1-hydroxycyclopropyl)methyl)acetamide], for which the concentration at 4 h in series [1] (setting [2]) stood at 5880 ng/g. Also, in series [1] (setting [3]), the concentration at 0.5 h worked out at 15.6 ng/mL, the concentration at 2 h amounted to 4.2 ng/mL and the concentration at 4 h came out at 2.3 ng/mL. This compound also registered an IC50 with IFNα pSTAT4 (JAK1/TYK2) of 81.4 nM. The IC50 with IL-2 pSTAT5 (JAK1/JAK3) is 13.9 nM.

Consider `N#CC[C@H]1CC[C@H](n2c(CC(=O)NCC3CC3)nc3cnc4[nH]ccc4c32)CC1` [Ex. 3, 2-(1-((1r,4r)-4-(Cyanomethyl)cyclohexyl)-1,6-dihydroimidazo[4,5-d]pyrrolo[2,3-b]pyridin-2-yl)-N-(cyclopropylmethyl)acetamide], for which, in series [1] (setting [2]), the concentration at 4 h was found to be 2150 ng/g. In addition, in series [1] (setting [3]), the concentration at 0.5 h amounted to 41.4 ng/mL, the concentration at 2 h was found to be 3.9 ng/mL and the concentration at 4 h worked out at 1.5 ng/mL. Moreover, the IC50 with IFNα pSTAT4 (JAK1/TYK2) came out at 10.1 nM. For the same compound, it took 6.4 nM to reach half-maximal inhibition with IL-2 pSTAT5 (JAK1/JAK3) (IC50).

Regarding `CC(C)(C#N)CNC(=O)Cc1nc2cnc3[nH]ccc3c2n1[C@H]1CC[C@H](CC#N)CC1` [Ex. 22, N-(2-Cyano-2-methylpropyl)-2-(1-((1r,4r)-4-(cyanomethyl)cyclohexyl)-1,6-dihydroimidazo[4,5-d]pyrrolo[2,3-b]pyridin-2-yl)acetamide], in series [1] (setting [2]), the concentration at 4 h worked out at 12000 ng/g. Moreover, in series [1] (setting [3]), the concentration at 0.5 h was 47 ng/mL, the concentration at 2 h was 9.6 ng/mL and the concentration at 4 h was found to be 5 ng/mL. The compound further had an IC50 with IFNα pSTAT4 (JAK1/TYK2) of 38.5 nM. The same compound returned a half-maximal inhibitory concentration (IC50) with IL-2 pSTAT5 (JAK1/JAK3) of 9.7 nM.

As to `N#CC[C@H]1CC[C@H](n2c(CC(=O)NC3CCOCC3)nc3cnc4[nH]ccc4c32)CC1` [Ex. 5, 2-(1-((1r,4r)-4-(Cyanomethyl)cyclohexyl)-1,6-dihydroimidazo[4,5-d]pyrrolo[2,3-b]pyridin-2-yl)-N-(tetrahydro-2H-pyran-4-yl)acetamide], the concentration at 4 h in series [1] (setting [2]) came to 5330 ng/g; in series [1] (setting [3]) it was 6 ng/mL. In addition, in series [1] (setting [3]), the concentration at 0.5 h worked out at 31.9 ng/mL. The concentration at 2 h in series [1] (setting [3]) is 8.8 ng/mL. In addition, the IC50 was 38.1 nM with IFNα pSTAT4 (JAK1/TYK2) and 6.4 nM with IL-2 pSTAT5 (JAK1/JAK3).

Take `N#CCC12CCC(NC(=O)Cc3nc4cnc5[nH]ccc5c4n3[C@H]3CC[C@H](CC#N)CC3)(CC1)C2` [Ex. 55, N-(4-(Cyanomethyl)bicyclo[2.2.1]heptan-1-yl)-2-(1-((1r,4r)-4-(cyanomethyl)cyclohexyl)-1,6-dihydroimidazo[4,5-d]pyrrolo[2,3-b]pyridin-2-yl)acetamide]: in series [1] (setting [2]), the concentration at 4 h turned out to be 3000 ng/g. Also, in series [1] (setting [3]), the concentration at 0.5 h is 26.6 ng/mL, the concentration at 2 h was found to be 3.2 ng/mL and the concentration at 4 h turned out to be 3.1 ng/mL. Also, in the series with IFNα pSTAT4 (JAK1/TYK2), inhibition was half-maximal at 40.4 nM (IC50). For the same compound, 16.8 nM corresponded to half-maximal inhibition with IL-2 pSTAT5 (JAK1/JAK3) (IC50).

For `N#CCC1CCC(n2c(-c3c[nH]cn3)nc3cnc4[nH]ccc4c32)CC1` (stereo not shown) [Ex. 2, 2-((1r,4r)-4-(2-(1H-Imidazol-4-yl)imidazo[4,5-d]pyrrolo[2,3-b]pyridin-1(6H)-yl)cyclohexyl)acetonitrile], in series [1] (setting [2]), the concentration at 4 h is 7600 ng/g. For the same compound, in series [1] (setting [3]), the concentration at 0.5 h was 24.5 ng/mL, the concentration at 2 h came to 4.2 ng/mL and the concentration at 4 h was 1.3 ng/mL. In the series with IFNα pSTAT4 (JAK1/TYK2), this compound yielded an IC50 of 20.8 nM. Besides, in the series on IL-2 pSTAT5 (JAK1/JAK3), inhibition was half-maximal at 9 nM (IC50).

For the compound `CC(C)(O)CNC(=O)Cc1nc2cnc3[nH]ccc3c2n1[C@H]1CC[C@H](CC#N)CC1` [Ex. 1, 2-(1-((1r,4r)-4-(Cyanomethyl)cyclohexyl)-1,6-dihydroimidazo[4,5-d]pyrrolo[2,3-b]pyridin-2-yl)-N-(2-hydroxy-2-methylpropyl)acetamide], the concentration at 4 h in series [1] (setting [2]) came out at 8590 ng/g. In addition, in series [1] (setting [3]), the concentration at 0.5 h is 13.4 ng/mL, the concentration at 2 h is 6.1 ng/mL and the concentration at 4 h came out at 3.3 ng/mL.

On to `N#CC[C@H]1CC[C@H](n2c(CC(=O)NCC3(O)CCC3)nc3cnc4[nH]ccc4c32)CC1` [Ex. 34, 2-(1-((1r,4r)-4-(Cyanomethyl)cyclohexyl)-1,6-dihydroimidazo[4,5-d]pyrrolo[2,3-b]pyridin-2-yl)-N-((1-hydroxycyclobutyl)methyl)acetamide], for which the concentration at 4 h in series [1] (setting [2]) was 7400 ng/g. In series [1] (setting [3]), the concentration at 0.5 h worked out at 43.1 ng/mL, the concentration at 2 h came to 5.4 ng/mL and the concentration at 4 h was 2.6 ng/mL. For the same compound, the IC50 in the series with IFNα pSTAT4 (JAK1/TYK2) stood at 42.8 nM. For the same compound, the IC50 in the series with IL-2 pSTAT5 (JAK1/JAK3) amounted to 20.6 nM.

Consider `N#CC[C@H]1CC[C@H](n2c(CC(=O)NCC3CCOCC3)nc3cnc4[nH]ccc4c32)CC1` [Ex. 10, 2-(1-((1r,4r)-4-(Cyanomethyl)cyclohexyl)-1,6-dihydroimidazo[4,5-d]pyrrolo[2,3-b]pyridin-2-yl)-N-((tetrahydro-2H-pyran-4-yl)methyl)acetamide], for which, in series [1] (setting [2]), the concentration at 4 h worked out at 11700 ng/g. In addition, in series [1] (setting [3]), the concentration at 0.5 h turned out to be 18.8 ng/mL, the concentration at 2 h stood at 3 ng/mL and the concentration at 4 h is 1.7 ng/mL. In the series with IFNα pSTAT4 (JAK1/TYK2), this compound displayed an IC50 of 39.4 nM. The compound further registered an IC50 in the series on IL-2 pSTAT5 (JAK1/JAK3) of 6.7 nM.
